From patent US20210255193A1, “LYSINE REACTIVE PROBES AND USES THEREOF” (The Scripps Research Institute, priority 2017, published 2021)

Legend:
Assay in all cases: competitive isoTOP-ABPP
Assay type in all cases: binding
[1] = target: T1, CNOT4 CCR4-NOT transcription complex subunit 4 (Homo sapiens, UniProt O95628); conditions: for R value (DMSO/fragment) for probe 1 labeling: O95628_K134; for R value (DMSO/fragment) for probe 1 labeling / isoTOP-ABPP reactivity ratio at lysine O95628_K134 / isoTOP-ABPP ratio (R) at liganded lysine O95628_K134: 50 uM, in vitro; for R value (DMSO/fragment) for probe 1 labeling / isoTOP-ABPP reactivity ratio at lysine O95628_K134: 231 sol; for isoTOP-ABPP ratio (R) at liganded lysine O95628_K134: sol, 231
T1 construct: isoTOP-ABPP experiments performed in cell lysates (in vitro); endogenous in cells; host or cells: MDA-MB-231 soluble lysate
T1 sequence (O95628 1-575): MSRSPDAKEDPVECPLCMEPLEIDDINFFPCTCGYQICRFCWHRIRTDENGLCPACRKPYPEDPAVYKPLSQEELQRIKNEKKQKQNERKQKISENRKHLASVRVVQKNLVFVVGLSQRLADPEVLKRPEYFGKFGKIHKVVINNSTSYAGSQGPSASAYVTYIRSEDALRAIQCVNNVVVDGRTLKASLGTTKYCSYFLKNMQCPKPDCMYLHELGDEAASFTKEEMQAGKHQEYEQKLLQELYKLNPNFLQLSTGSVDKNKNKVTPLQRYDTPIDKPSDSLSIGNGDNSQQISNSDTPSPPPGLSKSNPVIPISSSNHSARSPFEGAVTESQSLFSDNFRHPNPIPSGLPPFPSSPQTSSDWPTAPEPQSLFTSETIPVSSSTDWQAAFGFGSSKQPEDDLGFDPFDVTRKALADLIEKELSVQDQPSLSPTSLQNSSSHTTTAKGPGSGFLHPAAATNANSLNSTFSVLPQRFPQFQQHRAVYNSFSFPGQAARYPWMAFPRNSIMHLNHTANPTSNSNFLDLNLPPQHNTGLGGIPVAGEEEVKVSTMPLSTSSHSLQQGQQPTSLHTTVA
In short: (§1)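 Here, isoTOP-ABPP measures loss of STP-alkyne labeling at individual lysines after fragment exposure in lysate. Activated esters are dosed at 50 μM, guanidinylating agents at 100 μM; the probe follows at 0.1 mM for 1 h. R ≥4 marks a liganded lysine.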

[2] = target: T2, HNRNPK Heterogeneous nuclear ribonucleoprotein K (Homo sapiens, UniProt P61978); conditions: 50 uM, in vitro; for R value (DMSO/fragment) for probe 1 labeling: P61978_K405; for R value (DMSO/fragment) for probe 1 labeling / isoTOP-ABPP reactivity ratio at lysine P61978_K405: 231 sol; for isoTOP-ABPP ratio (R) at liganded lysine P61978_K405: sol, 231
T2 construct: isoTOP-ABPP experiments performed in cell lysates (in vitro); endogenous in cells; host or cells: soluble proteome of human cancer cell lines (MDA-MB-231, Ramos, Jurkat)
In short: as §1

[3] = target: T3, UCHL5 Ubiquitin carboxyl-terminal hydrolase isozyme L5 (Homo sapiens, UniProt Q9Y5K5); conditions: for R value (DMSO/fragment) for probe 1 labeling: Q9Y5K5_K323; for R value (DMSO/fragment) for probe 1 labeling / isoTOP-ABPP reactivity ratio at lysine Q9Y5K5_K323 / isoTOP-ABPP ratio (R) at liganded lysine Q9Y5K5_K323: 50 uM, in vitro; for R value (DMSO/fragment) for probe 1 labeling / isoTOP-ABPP reactivity ratio at lysine Q9Y5K5_K323: 231 sol; for isoTOP-ABPP ratio (R) at liganded lysine Q9Y5K5_K323: sol, 231; for isoTOP-ABPP ratio, lysine Q9Y5K5_K323: 50 uM_231_sol_in vitro
T3 construct: endogenous in cells; host or cells: MDA-MB-231 (soluble fraction of lysate)
T3 sequence (Q9Y5K5 1-329): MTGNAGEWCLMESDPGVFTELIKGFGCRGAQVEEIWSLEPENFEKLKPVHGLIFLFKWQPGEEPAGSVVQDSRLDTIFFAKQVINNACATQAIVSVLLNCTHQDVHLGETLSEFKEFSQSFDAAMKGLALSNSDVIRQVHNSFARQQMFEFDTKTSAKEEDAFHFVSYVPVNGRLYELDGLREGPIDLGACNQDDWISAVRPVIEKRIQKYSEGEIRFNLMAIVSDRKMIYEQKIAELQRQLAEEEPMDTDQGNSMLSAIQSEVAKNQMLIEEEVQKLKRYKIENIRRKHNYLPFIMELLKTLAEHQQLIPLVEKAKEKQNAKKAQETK
In short: as §1

DCTN2 Dynactin subunit 2 = target: T4, DCTN2 Dynactin subunit 2 (Homo sapiens, UniProt Q13561); conditions: for R value (DMSO/fragment) for probe 1 labeling: Q13561_K175; for R value (DMSO/fragment) for probe 1 labeling / isoTOP-ABPP reactivity ratio at lysine Q13561_K175 / isoTOP-ABPP ratio (R) at liganded lysine Q13561_K175: 50 uM, in vitro; for R value (DMSO/fragment) for probe 1 labeling / isoTOP-ABPP reactivity ratio at lysine Q13561_K175: 231 sol; for isoTOP-ABPP ratio (R) at liganded lysine Q13561_K175: sol, 231; for isoTOP-ABPP ratio, lysine Q13561_K175: 50 uM_231_sol_in vitro
T4 construct: isoTOP-ABPP experiments performed in cell lysates (in vitro); endogenous in cells; host or cells: soluble proteome of human cancer cell lines (MDA-MB-231, Ramos, Jurkat)
T4 sequence (Q13561 whole entry, the tested form may be a part): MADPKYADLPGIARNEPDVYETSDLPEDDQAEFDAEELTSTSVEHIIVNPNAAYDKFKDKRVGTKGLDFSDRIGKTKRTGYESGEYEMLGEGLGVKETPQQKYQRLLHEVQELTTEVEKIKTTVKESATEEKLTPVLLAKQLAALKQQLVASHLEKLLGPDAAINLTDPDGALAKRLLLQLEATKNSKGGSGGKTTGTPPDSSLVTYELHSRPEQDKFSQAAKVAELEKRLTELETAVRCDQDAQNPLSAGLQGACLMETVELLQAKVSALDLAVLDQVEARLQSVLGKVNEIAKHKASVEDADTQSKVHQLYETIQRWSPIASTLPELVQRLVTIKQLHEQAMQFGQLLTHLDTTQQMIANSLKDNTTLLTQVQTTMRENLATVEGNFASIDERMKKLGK
In short: as §1

Compound: O=C(CCc1cn(-c2ccccc2)nc1-c1ccccc1)Oc1c(F)c(F)c(F)c(F)c1F [fragment 19, Pentafluorophenyl 3-(1,3-diphenyl-1H-pyrazol-4-yl)propanoate]
- R value (DMSO/fragment) for probe 1 labeling [1]: 1.1
- R value (DMSO/fragment) for probe 1 labeling [2]: 1.3
- R value (DMSO/fragment) for probe 1 labeling [3]: 1.1

Compound: O=C(Oc1c(F)c(F)c(F)c(F)c1F)C(c1ccccc1)c1ccccc1 [fragment 20, Pentafluorophenyl 2,2-diphenylacetate]
- R value (DMSO/fragment) for probe 1 labeling (DCTN2 Dynactin subunit 2): 1.0
- R value (DMSO/fragment) for probe 1 labeling [1]: 0.9
- R value (DMSO/fragment) for probe 1 labeling [2]: 1.0
- R value (DMSO/fragment) for probe 1 labeling [3]: 0.9

Compound: O=C(Oc1c(F)c(F)c(F)c(F)c1F)c1cc(C(F)(F)F)cc(C(F)(F)F)c1 [fragment 21, Pentafluorophenyl 3,5-bis(trifluoromethyl)benzoate]
- R value (DMSO/fragment) for probe 1 labeling (DCTN2 Dynactin subunit 2): 0.9
- R value (DMSO/fragment) for probe 1 labeling [1]: 1.2
- R value (DMSO/fragment) for probe 1 labeling [2]: 1.0
- R value (DMSO/fragment) for probe 1 labeling [3]: 1.0

Compound: Cn1cc(CC(=O)Oc2c(F)c(F)c(F)c(F)c2F)c2ccccc21 [fragment 22, Pentafluorophenyl 2-(1-methyl-1H-indol-3-yl)acetate]
- R value (DMSO/fragment) for probe 1 labeling (DCTN2 Dynactin subunit 2): 1.7
- R value (DMSO/fragment) for probe 1 labeling [1]: 1.4
- R value (DMSO/fragment) for probe 1 labeling [3]: 0.8

Compound: COc1cc(CCC(=O)Oc2c(F)c(F)c(F)c(F)c2F)cc(OC)c1OC [fragment 23, Pentafluorophenyl 3-(3,4,5-trimethoxyphenyl)propanoate]
- R value (DMSO/fragment) for probe 1 labeling (DCTN2 Dynactin subunit 2): 1.1
- R value (DMSO/fragment) for probe 1 labeling [1]: 1.2

Compound: O=C(Oc1c(F)c(F)c(F)c(F)c1F)C1CCN(C(=O)OCc2ccccc2)CC1 [fragment 24, 1-Benzyl 4-(pentafluorophenyl) piperidine-1,4-dicarboxylate]
- isoTOP-ABPP reactivity ratio at lysine Q13561_K175 (DCTN2 Dynactin subunit 2): 1.3
- isoTOP-ABPP reactivity ratio at lysine O95628_K134 [1]: 1.0
- isoTOP-ABPP reactivity ratio at lysine Q9Y5K5_K323 [3]: 0.8

Compound: O=C(Oc1c(F)c(F)c(F)c(F)c1F)c1ccc2ccccc2n1 [fragment 25, Pentafluorophenyl quinoline-2-carboxylate]
- isoTOP-ABPP reactivity ratio at lysine Q13561_K175 (DCTN2 Dynactin subunit 2): 1.1
- isoTOP-ABPP reactivity ratio at lysine O95628_K134 [1]: 1.8
- isoTOP-ABPP reactivity ratio at lysine P61978_K405 [2]: 1.3

Compound: O=C(CCc1coc2cc(F)ccc2c1=O)Oc1c(F)c(F)c(F)c(F)c1F [fragment 26, Pentafluorophenyl 3-(7-fluoro-4-oxo-4H-chromen-3-yl)propanoate]
- isoTOP-ABPP reactivity ratio at lysine Q13561_K175 (DCTN2 Dynactin subunit 2): 1.6
- isoTOP-ABPP reactivity ratio at lysine O95628_K134 [1]: 1.1
- isoTOP-ABPP reactivity ratio at lysine P61978_K405 [2]: 0.9
- isoTOP-ABPP reactivity ratio at lysine Q9Y5K5_K323 [3]: 1.1

Compound: O=C(CN1C(=O)c2ccccc2C1=O)Oc1c(F)c(F)c(F)c(F)c1F [fragment 27, Pentafluorophenyl 2-(1,3-dioxoisoindolin-2-yl)acetate]
- isoTOP-ABPP reactivity ratio at lysine Q13561_K175 (DCTN2 Dynactin subunit 2): 1.2
- isoTOP-ABPP reactivity ratio at lysine O95628_K134 [1]: 1.2
- isoTOP-ABPP reactivity ratio at lysine P61978_K405 [2]: 1.0
- isoTOP-ABPP reactivity ratio at lysine Q9Y5K5_K323 [3]: 1.1

Compound: CCn1cc(C(=O)Oc2c(F)c(F)c(F)c(F)c2F)c(=O)c2ccc(C)nc21 [fragment 28, Pentafluorophenyl 1-ethyl-7-methyl-4-oxo-1,4-dihydro-1,8-naphthyridine-3-carboxylate]
- isoTOP-ABPP reactivity ratio at lysine O95628_K134 [1]: 1.0
- isoTOP-ABPP reactivity ratio at lysine Q9Y5K5_K323 [3]: 1.2

Compound: O=C(CCc1cn(-c2ccccc2)nc1-c1ccccc1)Oc1ccc([N+](=O)[O-])cc1[N+](=O)[O-] [fragment 29, 2,4-Dinitrophenyl 3-(1,3-diphenyl-1H-pyrazol-4-yl)propanoate]
- isoTOP-ABPP reactivity ratio at lysine Q13561_K175 (DCTN2 Dynactin subunit 2): 1.3
- isoTOP-ABPP reactivity ratio at lysine O95628_K134 [1]: 1.1
- isoTOP-ABPP reactivity ratio at lysine P61978_K405 [2]: 20.0
- isoTOP-ABPP reactivity ratio at lysine Q9Y5K5_K323 [3]: 1.1

Compound: O=C(Oc1ccc([N+](=O)[O-])cc1[N+](=O)[O-])C(c1ccccc1)c1ccccc1 [fragment 30, 2,4-Dinitrophenyl 2,2-diphenylacetate]
- isoTOP-ABPP reactivity ratio at lysine Q13561_K175 (DCTN2 Dynactin subunit 2): 3.4
- isoTOP-ABPP reactivity ratio at lysine O95628_K134 [1]: 1.2
- isoTOP-ABPP reactivity ratio at lysine P61978_K405 [2]: 0.9
- isoTOP-ABPP reactivity ratio at lysine Q9Y5K5_K323 [3]: 1.1

Compound: O=C(Oc1ccc([N+](=O)[O-])cc1[N+](=O)[O-])c1cc(C(F)(F)F)cc(C(F)(F)F)c1 [fragment 31, 2,4-Dinitrophenyl 3,5-bis(trifluoromethyl)benzoate]
- isoTOP-ABPP reactivity ratio at lysine Q13561_K175 (DCTN2 Dynactin subunit 2): 1.0
- isoTOP-ABPP reactivity ratio at lysine O95628_K134 [1]: 4.3
- isoTOP-ABPP reactivity ratio at lysine Q9Y5K5_K323 [3]: 1.0

Compound: Cn1cc(CC(=O)Oc2ccc([N+](=O)[O-])cc2[N+](=O)[O-])c2ccccc21 [fragment 32, 2,4-Dinitrophenyl 2-(1-methyl-1H-indol-3-yl)acetate]
- isoTOP-ABPP reactivity ratio at lysine Q13561_K175 (DCTN2 Dynactin subunit 2): 4.4
- isoTOP-ABPP reactivity ratio at lysine O95628_K134 [1]: 2.1
- isoTOP-ABPP reactivity ratio at lysine P61978_K405 [2]: 0.9
- isoTOP-ABPP reactivity ratio at lysine Q9Y5K5_K323 [3]: 1.0

Compound: COc1cc(CCC(=O)Oc2ccc([N+](=O)[O-])cc2[N+](=O)[O-])cc(OC)c1OC [fragment 33, 2,4-Dinitrophenyl 3-(3,4,5-trimethoxyphenyl)propanoate]
- isoTOP-ABPP reactivity ratio at lysine Q13561_K175 (DCTN2 Dynactin subunit 2): 1.6
- isoTOP-ABPP reactivity ratio at lysine O95628_K134 [1]: 1.4
- isoTOP-ABPP reactivity ratio at lysine Q9Y5K5_K323 [3]: 0.8

Compound: O=C(Oc1ccc([N+](=O)[O-])cc1[N+](=O)[O-])C1CCN(C(=O)OCc2ccccc2)CC1 [fragment 34, 1-Benzyl 4-(2,4-dinitrophenyl) piperidine-1,4-dicarboxylate]
- isoTOP-ABPP ratio (R) at liganded lysine Q13561_K175 (DCTN2 Dynactin subunit 2): 1.7
- isoTOP-ABPP ratio (R) at liganded lysine O95628_K134 [1]: 1.1
- isoTOP-ABPP ratio (R) at liganded lysine P61978_K405 [2]: 1.4
- isoTOP-ABPP ratio (R) at liganded lysine Q9Y5K5_K323 [3]: 0.9

Compound: O=C(CCc1coc2cc(F)ccc2c1=O)Oc1ccc([N+](=O)[O-])cc1[N+](=O)[O-] [fragment 36, 2,4-Dinitrophenyl 3-(7-fluoro-4-oxo-4H-chromen-3-yl)propanoate]
- isoTOP-ABPP ratio (R) at liganded lysine Q9Y5K5_K323 [3]: 0.8

Compound: O=C(CC12CC3CC(CC(C3)C1)C2)Oc1ccc([N+](=O)[O-])cc1[N+](=O)[O-] [fragment 38, 2,4-Dinitrophenyl 2-(adamantan-1-yl)acetate]
- isoTOP-ABPP ratio (R) at liganded lysine O95628_K134 [1]: 1.2
- isoTOP-ABPP ratio (R) at liganded lysine P61978_K405 [2]: 20.0
- isoTOP-ABPP ratio (R) at liganded lysine Q9Y5K5_K323 [3]: 0.9

Compound: O=C(Oc1ccc([N+](=O)[O-])cc1[N+](=O)[O-])C(c1ccccc1)(c1ccccc1)c1ccccc1 [fragment 42, 2,4-Dinitrophenyl 2,2,2-triphenylacetate]
- isoTOP-ABPP ratio (R) at liganded lysine Q13561_K175 (DCTN2 Dynactin subunit 2): 0.9
- isoTOP-ABPP ratio (R) at liganded lysine O95628_K134 [1]: 1.0
- isoTOP-ABPP ratio (R) at liganded lysine Q9Y5K5_K323 [3]: 1.0

Compound: O=C(Oc1c(F)c(F)c(C(F)(F)F)c(F)c1F)c1cc(C(F)(F)F)cc(C(F)(F)F)c1 [fragment 47, 2,3,5,6-Tetrafluoro-4-(trifluoromethyl)phenyl 3,5-bis(trifluoromethyl)benzoate]
- isoTOP-ABPP ratio, lysine Q13561_K175 (DCTN2 Dynactin subunit 2): 1.0
- isoTOP-ABPP ratio, lysine O95628_K134 ([1]; 50 uM_231_sol_in vitro): 1.5
- isoTOP-ABPP ratio, lysine Q9Y5K5_K323 [3]: 1.4

Compound: O=C(Oc1c(F)c(F)cc(F)c1F)c1cc(C(F)(F)F)cc(C(F)(F)F)c1 [fragment 48, 2,3,5,6-Tetrafluorophenyl 3,5-bis(trifluoromethyl)benzoate]
- isoTOP-ABPP ratio, lysine Q13561_K175 (DCTN2 Dynactin subunit 2): 0.7
- isoTOP-ABPP ratio, lysine Q9Y5K5_K323 [3]: 0.9
